# According to patent US20230106943A1, “ENGINEERED ANTIMICROBIAL PEPTIDES AND USAGE THEREOF” (Peptilogics, Inc., priority 2021, published 2023):
# No end group written: not given here.
# Tests used:
# [1] = Stability of solid SEQ ID NO: 1 stored at −20° C. (HPLC area percent); assay type: physicochemical
# Experimental: A solid form of SEQ ID NO: 1 from Batch 2K18005 was dissolved and assayed. FIG. 1 depict the chromatograph of SEQ ID NO:1 at 1.0 mg/mL. The retention time at 14.38 and relative retention time at 1.00 (RTT) corresponded to SEQ ID NO: 1. The area percent of the SEQ ID NO: 1 was 99.09. […] The area percent of the impurity was 0.91. FIG. 1 depicts SEQ ID NO: 1 at time (t)=0 for a baseline prior to storage. SEQ ID NO: 1 is stable after 3 years of storage at −20° C. as a dry powder in a glass vial. FIG. 2 depicts the HPLC chromatograph after 3 years of storage SEQ ID NO: 1 in solid form at −20° C. (Batch 2K18005). The retention time at 18.03 and relative retention time at 1.00 (RTT) corresponded to SEQ ID NO: 1. The area percent of the SEQ ID NO: 1 was 97.87.
# [2] = Example 4 stability of concentrated solutions: Osmolality (method 69153); assay type: physicochemical
# Experimental: The peptide formulation of SEQ ID NO: 1 dissolved in a saline solution with a pH of 5.0±0.1 was tested for stability under either −20° C. or 40° C. with 75% relative humidity (RH). […]
# [3] = solid form, Batch 2K18005, t=0 baseline prior to storage
# [4] = solid form, after 3 years at −20° C.
substance,measurement,setting,value
RRWVRRVRRVWRRVVRVVRRWVRR-NH2 [SEQ ID NO: 1],solubility,,> 100 mg/mL
same,stability on storage,"[1]; dry powder in a glass vial, 3 years at −20° C.",stable
same,area percent of the SEQ ID NO: 1 (HPLC),"[1]; solid form, Batch 2K18005, after 3 years of storage at −20° C.",97.87 area percent
same,area percent of the SEQ ID NO: 1 (HPLC),[1]; [3],99.09 area percent
same,"area percent of the impurity, RTT 1.03",[1]; [3],0.91 area percent
same,"area percentage of impurity, RTT 0.99",[1]; [4],0.09 area percent
same,"area percentage of impurity, RTT 1.02",[1]; [4],1.28 area percent
same,"area percentage of impurity, RTT 1.03",[1]; [4],0.41 area percent
same,"area percentage of impurity, RTT 1.04",[1]; [4],0.19 area percent
same,"area percentage of impurity, RTT 1.05",[1]; [4],0.15 area percent
same,Osmolality,"[2]; 15.3 mg/mL solution, 40° C. and 75% RH, 1 Month",Average Reading: 82 mOsmol/kg
same,Osmolality,"[2]; 15.3 mg/mL solution, 40° C. and 75% RH, 2 Month",Average Reading: 83 mOsmol/kg
same,Osmolality,"[2]; 15.3 mg/mL solution, 40° C. and 75% RH, 3 Month",Average Reading: 80 mOsmol/kg
same,Osmolality,"[2]; 15.3 mg/mL solution, 40° C. and 75% RH, 6 Month",85 mOsmol/kg
same,Osmolality,"[2]; 15.3 mg/mL solution, −20° C., 0 Month",Average Reading: 82 mOsmol/kg
same,Osmolality,"[2]; 15.3 mg/mL solution, −20° C., 1 Month",Average Reading: 82 mOsmol/kg
same,Osmolality,"[2]; 15.3 mg/mL solution, −20° C., 2 Month",Average Reading: 82 mOsmol/kg
same,Osmolality,"[2]; 15.3 mg/mL solution, −20° C., 3 Month",Average Reading: 82 mOsmol/kg
same,Osmolality,"[2]; 15.3 mg/mL solution, −20° C., 6 Month",84 mOsmol/kg
same,Osmolality,"[2]; 15.3 mg/mL solution, −20° C., 9 Month",83 mOsmol/kg
same,Osmolality Average Reading,"[2]; 36.7 mg/mL solution, 40° C. and 75% RH, 1 Month",Average Reading: 188 mOsmol/kg
same,Osmolality Average Reading,"[2]; 36.7 mg/mL solution, 40° C. and 75% RH, 2 Month",Average Reading: 189 mOsmol/kg
same,Osmolality Average Reading,"[2]; 36.7 mg/mL solution, 40° C. and 75% RH, 3 Month",Average Reading: 191 mOsmol/kg
same,Osmolality,"[2]; 36.7 mg/mL solution, 40° C. and 75% RH, 6 Month",193 mOsmol/kg
same,Osmolality,"[2]; 36.7 mg/mL solution, −20° C., 0 Month",Average Reading: 190 mOsmol/kg
same,Osmolality,"[2]; 36.7 mg/mL solution, −20° C., 1 Month",Average Reading: 188 mOsmol/kg
same,Osmolality,"[2]; 36.7 mg/mL solution, −20° C., 2 Month",Average Reading: 190 mOsmol/kg
same,Osmolality,"[2]; 36.7 mg/mL solution, −20° C., 3 Month",Average Reading: 193 mOsmol/kg
same,Osmolality,"[2]; 36.7 mg/mL solution, −20° C., 6 Month",190 mOsmol/kg
same,Osmolality,"[2]; 36.7 mg/mL solution, −20° C., 9 Month",190 mOsmol/kg
same,Osmolality Average Reading,"[2]; 72.4 mg/mL solution, 40° C. and 75% RH, 1 Month",Average Reading: 374 mOsmol/kg
same,Osmolality Average Reading,"[2]; 72.4 mg/mL solution, 40° C. and 75% RH, 2 Month",Average Reading: 379 mOsmol/kg
same,Osmolality Average Reading,"[2]; 72.4 mg/mL solution, 40° C. and 75% RH, 3 Month",Average Reading: 371 mOsmol/kg
same,Osmolality,"[2]; 72.4 mg/mL solution, 40° C. and 75% RH, 6 Month",194 mOsmol/kg
same,Osmolality Average Reading,"[2]; 72.4 mg/mL solution, −20° C., 0 Month",Average Reading: 371 mOsmol/kg
same,Osmolality Average Reading,"[2]; 72.4 mg/mL solution, −20° C., 1 Month",Average Reading: 374 mOsmol/kg
same,Osmolality Average Reading,"[2]; 72.4 mg/mL solution, −20° C., 2 Month",Average Reading: 376 mOsmol/kg
same,Osmolality Average Reading,"[2]; 72.4 mg/mL solution, −20° C., 3 Month",Average Reading: 374 mOsmol/kg
same,Osmolality,"[2]; 72.4 mg/mL solution, −20° C., 6 Month",195 mOsmol/kg
same,Osmolality,"[2]; 72.4 mg/mL solution, −20° C., 9 Month",375 mOsmol/kg
same,Osmolality,"[2]; 81.4 mg/mL solution, 40° C. and 75% RH, 1 Month",489 mOsm/kg
same,Osmolality,"[2]; 81.4 mg/mL solution, 40° C. and 75% RH, 2 Month",491 mOsm/kg
same,Osmolality,"[2]; 81.4 mg/mL solution, 40° C. and 75% RH, 3 Month",492 mOsm/kg
same,Osmolality,"[2]; 81.4 mg/mL solution, −20° C., 0 Month",485 mOsm/kg
same,Osmolality,"[2]; 81.4 mg/mL solution, −20° C., 1 Month",489 mOsm/kg
same,Osmolality,"[2]; 81.4 mg/mL solution, −20° C., 2 Month",488 mOsm/kg
same,Osmolality,"[2]; 81.4 mg/mL solution, −20° C., 3 Month",486 mOsm/kg
